Assay results as given in patent publication US9708314B2, “Heterocyclic amide compound” (NISSAN CHEMICAL INDUSTRIES, LTD., priority 2013, dated 2017).

Legend:
Format in all cases: in vivo
[1] = test system: directly sowed Oryza sativa; assay: Test Example 3: effect on crop by application to foliage (Wagner pot, water depth 0.1-0.5 cm); settings: Nineteenth Table; application to foliage; application herbicide amount 320 g/ha
Text: (§1) 5 Herbicidal ratio of 90% or more (almost completely withered) 4 Herbicidal ratio of 70% or more and less than 90% 3 Herbicidal ratio of 40% or more and less than 70% 2 Herbicidal ratio of 20% or more and less than 40% 1 Herbicidal ratio of 5% or more and less than 20% 0 Herbicidal ratio of 5% or less (almost no effect) [Test Example 3] Herbicidal Effect Test by Application to Foliage After alluvial soil was placed into 1/10000 are of Wagner pot, water was poured and mixed to form a condition having a water depth of 0.1 cm to 0.5 cm. Seeds of Echinochloa crus-galli var. crus-galli, Leptochloa chinensis, Cyperus difformis, and Oryza sativa were sowed and the pot was placed in the greenhouse of 25° C. to 30° C. to grow the plants. After the plants were grown for 14 days, the emulsion agent containing the compound of the present invention prepared in accordance with Formulation Example 2 was diluted with water so as to be a predetermined herbicide amount and the diluted compound was uniformly applied to a stem and leaf part with a small-size spray. Three weeks after the herbicide application, effects on each plant were investigated in accordance with the criteria of Test Example 1. A: Echinochloa oryzicola Vasing., B: Scirpus juncoides, C: Monochoria vaginalis, D: Leptochloa chinensis, E: Cyperus difformis, F: Digitaria ciliaris, G: Setaria viridis, H: Echinochloa crus-galli var. crus-galli, I: Avena fatua, J: Alopecurus myosuroides, K: Lolium multiflorum Lam., L: Apera spica-venti., M: Abutilon theophrasti, N: Amaranthus retroflexus, O: Chenopodium album, P: Stellaria media, Q: Galium spurium, R: Veronica persica, a: transplanted Oryza sativa, b: directly sowed Oryza sativa, c: Zea mays, d: Glycine max, e: Triticum aestivum, f: Beta vulgaris ssp. vulgaris, and g: Brassica campestris L. The application herbicide amount (g/ha) means an amount that a concentration is adjusted so that, when an application amount is converted into per hectare (1 ha), the herbicide is applied by the number of grams (g) of the described value.

Galium spurium = assay: Test Example 4: herbicidal effect by application to foliage (diluvial soil, plastic box); settings: Application herbicide amount 320 g/ha
Text: (§2) 5 Herbicidal ratio of 90% or more (almost completely withered) 4 Herbicidal ratio of 70% or more and less than 90% 3 Herbicidal ratio of 40% or more and less than 70% 2 Herbicidal ratio of 20% or more and less than 40% 1 Herbicidal ratio of 5% or more and less than 20% 0 Herbicidal ratio of 5% or less (almost no effect) [Test Example 4] Herbicidal Effect Test by Application to Foliage Sterilized diluvial soil was placed in a plastic box having a length of 21 cm, a width of 13 cm, and a depth of 7 cm. Each of the seeds of Digitaria ciliaris, Setaria viridis, Echinochloa crus-galli var. crus-galli, Avena fatua, Alopecurus myosuroides, Lolium multiflorum Lam., Apera spica-venti., Abutilon theophrasti, Amaranthus retroflexus, Chenopodium album, Stellaria media, Galium spurium, Veronica persica, Zea mays, Glycine max, Oryza sativa, Triticum aestivum, Beta vulgaris ssp. vulgaris, and Brassica campestris L. was sowed in a spot-like manner and was covered with the soil of about 1.5 cm thick. Thereafter, the plants were grown in the greenhouse of 25° C. to 30° C. After the plants were grown for 14 days, the emulsion agent containing the compound of the present invention prepared in accordance with Formulation Example 2 was diluted with water so as to be a predetermined herbicide amount and the diluted compound was uniformly applied to a stem and leaf part with a small-size spray. Three weeks after the herbicide application, effects on each plant were investigated in accordance with the criteria of Test Example 1. A: Echinochloa oryzicola Vasing., B: Scirpus juncoides, C: Monochoria vaginalis, D: Leptochloa chinensis, E: Cyperus difformis, F: Digitaria ciliaris, G: Setaria viridis, H: Echinochloa crus-galli var. crus-galli, I: Avena fatua, J: Alopecurus myosuroides, K: Lolium multiflorum Lam., L: Apera spica-venti., M: Abutilon theophrasti, N: Amaranthus retroflexus, O: Chenopodium album, P: Stellaria media, Q: Galium spurium, R: Veronica persica, a: transplanted Oryza sativa, b: directly sowed Oryza sativa, c: Zea mays, d: Glycine max, e: Triticum aestivum, f: Beta vulgaris ssp. vulgaris, and g: Brassica campestris L. The application herbicide amount (g/ha) means an amount that a concentration is adjusted so that, when an application amount is converted into per hectare (1 ha), the herbicide is applied by the number of grams (g) of the described value.

Veronica persica = assay: as above; settings: Application herbicide amount 320 g/ha
Text: as §2

Avena fatua = assay: as above; settings: Application herbicide amount 320 g/ha
Text: as §2

Apera spica-venti. = assay: as above; settings: Application herbicide amount 320 g/ha
Text: as §2

Alopecurus myosuroides = assay: as above; settings: Application herbicide amount 320 g/ha
Text: as §2

Chenopodium album = assay: as above; settings: Application herbicide amount 320 g/ha
Text: as §2

Lolium multiflorum Lam. = assay: as above; settings: Application herbicide amount 320 g/ha
Text: as §2

[2] = test system: Echinochloa crus-galli var. crus-galli; assay: as above; settings: Application herbicide amount 320 g/ha
Text: as §2

Setaria viridis = assay: as above; settings: Application herbicide amount 320 g/ha
Text: as §2

Abutilon theophrasti = assay: as above; settings: Application herbicide amount 320 g/ha
Text: as §2

Digitaria ciliaris = assay: as above; settings: Application herbicide amount 320 g/ha
Text: as §2

[3] = test system: Beta vulgaris ssp. vulgaris; assay: Test Example 4: effect on crop by application to foliage (diluvial soil, plastic box); settings: Application herbicide amount 320 g/ha; effect on crop
Text: as §2

Glycine max = assay: as above; settings: Application herbicide amount 320 g/ha; effect on crop
Text: as §2

Zea mays = assay: as above; settings: Application herbicide amount 320 g/ha; effect on crop
Text: as §2

Triticum aestivum = assay: as above; settings: Application herbicide amount 320 g/ha; effect on crop
Text: as §2

Brassica campestris L. = assay: as above; settings: Application herbicide amount 320 g/ha; effect on crop
Text: as §2

[4] = test system: directly sowed Oryza sativa; assay: as above; settings: Application herbicide amount 320 g/ha; effect on crop
Text: as §2

Leptochloa chinensis = assay: Test Example 3: herbicidal effect by application to foliage (Wagner pot, water depth 0.1-0.5 cm); settings: Nineteenth Table; application to foliage; application herbicide amount 320 g/ha
Text: as §1

[5] = test system: Echinochloa crus-galli var. crus-galli; assay: as above; settings: Nineteenth Table; application to foliage; application herbicide amount 320 g/ha
Text: as §1

Cyperus difformis = assay: as above; settings: Nineteenth Table; application to foliage; application herbicide amount 320 g/ha
Text: as §1

Structure (SMILES): CON=Cc1nnc2c(C(=O)Nc3nnc(C)o3)ccc(C(F)(F)F)n12 [1-072]
- b (effect on crop grade) [1]: 0 (Herbicidal ratio of 5% or less (almost no effect))
- Q (Galium spurium): 0 (Herbicidal ratio of 5% or less (almost no effect))
- R (Veronica persica): 1 (Herbicidal ratio of 5% or more and less than 20%)
- I (Avena fatua): 0 (Herbicidal ratio of 5% or less (almost no effect))
- L (Apera spica-venti.): 0 (Herbicidal ratio of 5% or less (almost no effect))
- J (Alopecurus myosuroides): 0 (Herbicidal ratio of 5% or less (almost no effect))
- O (Chenopodium album): 4 (Herbicidal ratio of 70% or more and less than 90%)
- K (Lolium multiflorum Lam.): 0 (Herbicidal ratio of 5% or less (almost no effect))
- H [2]: 3 (Herbicidal ratio of 40% or more and less than 70%)
- G (Setaria viridis): 0 (Herbicidal ratio of 5% or less (almost no effect))
- M (Abutilon theophrasti): 1 (Herbicidal ratio of 5% or more and less than 20%)
- F (Digitaria ciliaris): 0 (Herbicidal ratio of 5% or less (almost no effect))
- f [3]: 0 (Herbicidal ratio of 5% or less (almost no effect))
- c (Glycine max): 0 (Herbicidal ratio of 5% or less (almost no effect))
- b (Zea mays): 0 (Herbicidal ratio of 5% or less (almost no effect))
- e (Triticum aestivum): 0 (Herbicidal ratio of 5% or less (almost no effect))
- g (Brassica campestris L.): 0 (Herbicidal ratio of 5% or less (almost no effect))
- d [4]: 0 (Herbicidal ratio of 5% or less (almost no effect))
- D (herbicidal effect grade) (Leptochloa chinensis): 1 (Herbicidal ratio of 5% or more and less than 20%)
- H (herbicidal effect grade) [5]: 2 (Herbicidal ratio of 20% or more and less than 40%)
- E (herbicidal effect grade) (Cyperus difformis): 0 (Herbicidal ratio of 5% or less (almost no effect))

Structure (SMILES): Cc1nnc(NC(=O)c2ccc(-c3ccccc3)n3c(C(C)C)nnc23)o1 [1-081]
- b (effect on crop grade) [1]: 0 (Herbicidal ratio of 5% or less (almost no effect))
- R (Veronica persica): 0 (Herbicidal ratio of 5% or less (almost no effect))
- I (Avena fatua): 0 (Herbicidal ratio of 5% or less (almost no effect))
- L (Apera spica-venti.): 0 (Herbicidal ratio of 5% or less (almost no effect))
- J (Alopecurus myosuroides): 0 (Herbicidal ratio of 5% or less (almost no effect))
- O (Chenopodium album): 4 (Herbicidal ratio of 70% or more and less than 90%)
- K (Lolium multiflorum Lam.): 0 (Herbicidal ratio of 5% or less (almost no effect))
- H [2]: 0 (Herbicidal ratio of 5% or less (almost no effect))
- G (Setaria viridis): 0 (Herbicidal ratio of 5% or less (almost no effect))
- M (Abutilon theophrasti): 0 (Herbicidal ratio of 5% or less (almost no effect))
- F (Digitaria ciliaris): 0 (Herbicidal ratio of 5% or less (almost no effect))
- f [3]: 1 (Herbicidal ratio of 5% or more and less than 20%)
- c (Glycine max): 0 (Herbicidal ratio of 5% or less (almost no effect))
- b (Zea mays): 0 (Herbicidal ratio of 5% or less (almost no effect))
- e (Triticum aestivum): 0 (Herbicidal ratio of 5% or less (almost no effect))
- g (Brassica campestris L.): 0 (Herbicidal ratio of 5% or less (almost no effect))
- d [4]: 0 (Herbicidal ratio of 5% or less (almost no effect))
- D (herbicidal effect grade) (Leptochloa chinensis): 0 (Herbicidal ratio of 5% or less (almost no effect))
- H (herbicidal effect grade) [5]: 2 (Herbicidal ratio of 20% or more and less than 40%)
- E (herbicidal effect grade) (Cyperus difformis): 0 (Herbicidal ratio of 5% or less (almost no effect))

Structure (SMILES): Cc1nnc(NC(=O)c2ccc(-c3cc(F)cc(F)c3)n3c(C(C)C)nnc23)o1 [1-088]
- Q (Galium spurium): 0 (Herbicidal ratio of 5% or less (almost no effect))
- R (Veronica persica): 0 (Herbicidal ratio of 5% or less (almost no effect))
- I (Avena fatua): 0 (Herbicidal ratio of 5% or less (almost no effect))
- L (Apera spica-venti.): 0 (Herbicidal ratio of 5% or less (almost no effect))
- J (Alopecurus myosuroides): 0 (Herbicidal ratio of 5% or less (almost no effect))
- O (Chenopodium album): 2 (Herbicidal ratio of 20% or more and less than 40%)
- K (Lolium multiflorum Lam.): 0 (Herbicidal ratio of 5% or less (almost no effect))
- H [2]: 0 (Herbicidal ratio of 5% or less (almost no effect))
- G (Setaria viridis): 0 (Herbicidal ratio of 5% or less (almost no effect))
- M (Abutilon theophrasti): 0 (Herbicidal ratio of 5% or less (almost no effect))
- F (Digitaria ciliaris): 0 (Herbicidal ratio of 5% or less (almost no effect))
- f [3]: 0 (Herbicidal ratio of 5% or less (almost no effect))
- c (Glycine max): 0 (Herbicidal ratio of 5% or less (almost no effect))
- b (Zea mays): 0 (Herbicidal ratio of 5% or less (almost no effect))
- e (Triticum aestivum): 0 (Herbicidal ratio of 5% or less (almost no effect))
- g (Brassica campestris L.): 0 (Herbicidal ratio of 5% or less (almost no effect))
- d [4]: 0 (Herbicidal ratio of 5% or less (almost no effect))

Structure (SMILES): CC(C)c1nnc2c(C(=O)Nc3nnc(-c4ccccn4)o3)ccc(C(F)(F)F)n12 [1-101]
- b (effect on crop grade) [1]: 0 (Herbicidal ratio of 5% or less (almost no effect))
- D (herbicidal effect grade) (Leptochloa chinensis): 0 (Herbicidal ratio of 5% or less (almost no effect))
- H (herbicidal effect grade) [5]: 1 (Herbicidal ratio of 5% or more and less than 20%)
- E (herbicidal effect grade) (Cyperus difformis): 0 (Herbicidal ratio of 5% or less (almost no effect))

Structure (SMILES): Cc1nnc(NC(=O)c2ccc(C(F)(F)F)n3c(C(C)C)nnc23)n1C [5-001]
- b (effect on crop grade) [1]: 0 (Herbicidal ratio of 5% or less (almost no effect))
- D (herbicidal effect grade) (Leptochloa chinensis): 0 (Herbicidal ratio of 5% or less (almost no effect))
- H (herbicidal effect grade) [5]: 1 (Herbicidal ratio of 5% or more and less than 20%)
- E (herbicidal effect grade) (Cyperus difformis): 0 (Herbicidal ratio of 5% or less (almost no effect))
